Results taken from BindingDB's records for doi:10.1021/jm301304e (University of Toyama, 2012).

Assay: Inhibition of bovine liver beta-glucosidase

| Structure (SMILES) | IC50 [µM] |
| --- | --- |
| OC[C@H]1NC[C@H](O)[C@@H](O)[C@@H]1O [(2R,3R,4R,5S)-2-(hydroxymethyl)piperidine-3,4,5-triol] | 210 |
| CCCC[C@H]1N[C@H](CO)[C@@H](O)[C@H](O)[C@H]1O [(2R,3S,4R,5R,6R)-2-butyl-6-(hydroxymethyl)piperidine-3,4,5-triol] | 120 |
